Measured values from US12280043B2, “Sustained-release anesthetic compositions and methods of preparation thereof” (TLC Biopharmaceuticals, Inc., priority 2017, dated 2025).

Key:
[1] = Pharmacokinetic study after single SC injection; format: in vivo, Sprague-Dawley rats
Experimental: Jugular vein cannulated (JVC) female Sprague-Dawley rats were used for a pharmacokinetic (PK) study. The rats were housed in a holding room that operates on a 12-hr light/12-hr dark circadian cycle and that provides free access to water and food. […] Blood samples were collected at 15 min, 1 hour, 2 hours, 4 hours, 8 hours, 24 hours, 48 hours, and 72 hours post-injection. Plasma samples were obtained by centrifugation and were kept frozen at −80° C. until analysis. PK data obtained from the samples were analyzed using a noncompartmental model (WinNonlin® software).

[2] = pKa and ionisation state stated in text; format: physicochemical; conditions: at pH 6.0, calculation from pKa
paw incision mouse model = experiment: Anesthetic effect in a paw incision mouse model (von Frey mechanical threshold); format: in vivo, C57/BL6 mice; conditions: 0.18 mg ropivacaine per incision
Experimental: Wild type male C57/BL6 mice (8-week-old, Envigo) were used for evaluating the anesthetic efficacy after paw incision as described in Anesthesiology, 2003 October; 99 (4): 1023-7 and J. Neurosci Methods. 1994 July; 53 (1): 55-63. […] Baseline (T=−2 hours) mechanical (von Frey) thresholds of 32 mice were taken prior to surgery; baseline thresholds were measured on the mouse's left hind paw. All 32 mice received a plantar incision (5 mm long and […]) on their left hind paw. Two-hours post-surgery (T=0 hour), the mechanical threshold of each mouse was reassessed and the presence of mechanical allodynia in each mouse was confirmed. Thirty-two mice were randomized into 4 groups (8 mice per group). […] The 50% paw withdrawal threshold of each mouse was obtained using the up-down method at baseline time point (−2), and the designated time points (0, 1, 2, 3, 4, 5, 6, 8, and 24 hours) after SC injection treatment. […] The average 50% withdrawal threshold for each treatment group was graphed; data presented as a withdrawal threshold (g) were plotted against time (FIG. 2A). To account for variability among the baseline mechanical sensitivities of individual mice, each mouse's 50% paw withdrawal thresholds after surgery and treatment were normalized to its own baseline 50% withdrawal threshold (T=−2 hours). […]

[3] = female, Sprague-Dawley, rat, plasma, sc, 20 mg/kg

CCCN1CCCC[C@H]1C(=O)Nc1c(C)cccc1C [Ropivacaine, ropivacaine]
Cmax [1, 3]: 802 ± 208 ng/mL
half-life [1, 3]: 3.1 ± 1.4 h
AUC(0-t) ([1]; female, Sprague-Dawley, rat, plasma, sc, 20 mg/kg, read-out: AUC0-4): 4040 ± 632 ng·h/mL
time until which ropivacaine could be detected in the plasma ([1]; rats, single SC, same dosage 20.0 mg/kg): ≤ 24 h
theoretically uncharged ropivacaine, of available ropivacaine [2]: 0.8%
analgesia compared to vehicle group (paw incision mouse model; SC): some degree of analgesia
withdrawal threshold at the first time point (paw incision mouse model; T=1 hour after SC injection, increased from 0.04 g): 0.22 g
